Where “and” joins values, the source holds several entries; their conditions need not be identical. Equal entries are not always repeated. Where two headings read alike, the source gives them in different places.
Assays:
[1] = target: T1, streptavidin (SAV) (Streptomyces avidinii, UniProt P22629); test: Literature kinetics, affinity and dissociation (backward) activation parameters; assay type: binding; conditions: SAV-B7, average of the reported values
T1 construct: purchased Sigma Aldrich (St. Louis, MO)
T1 sequence (P22629 25-183): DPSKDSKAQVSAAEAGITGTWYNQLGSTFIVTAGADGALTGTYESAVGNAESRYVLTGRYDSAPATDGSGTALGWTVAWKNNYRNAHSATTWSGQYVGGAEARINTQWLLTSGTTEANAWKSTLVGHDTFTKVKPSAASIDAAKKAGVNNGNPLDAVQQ

[2] = target: T1, streptavidin (SAV); test: Literature calorimetry reaction thermodynamics; assay type: binding; conditions: SAV-B7, average of the reported values
[3] = target: T2, avidin (AV) (Gallus gallus, UniProt P02701); conditions: cited from earlier work; for ΔG° ^ǂ, Backward / ΔS° ^ǂ, Backward: calculated from the plotted data; for Ea^Backward: ref 18
T2 construct: purchased Calbiochem (La Jolla, CA)
T2 sequence (P02701 25-152): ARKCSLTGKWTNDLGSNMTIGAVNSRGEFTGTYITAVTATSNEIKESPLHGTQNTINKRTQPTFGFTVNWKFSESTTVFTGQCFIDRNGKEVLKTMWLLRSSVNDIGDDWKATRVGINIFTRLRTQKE

[4] = target: T1, streptavidin (SAV); conditions: cited from earlier work
[5] = target: T2, avidin (AV); conditions: AV-B7, cited from earlier work
[6] = target: T1, streptavidin (SAV); conditions: SAV-B7, cited from earlier work
[7] = target: T1, streptavidin (SAV); test: Absorbance and fluorescence emission spectra, SAV complex; assay type: physicochemical
Description: The lifetimes (τ), steady state anisotropies (rss), time-resolved anisotropies (rt) and quantum yields (QY) of the complexes (at 20 ± 0.1°C and pH 8) were collected with a dye-labeled B7 probe concentration of 20–40 nM and 1040–2080 nM of either protein (AV or SAV) to ensure that only one binding site in the tetramer was filled with a ligand (AB1 filling model).
The QY values were obtained by using a reference fluorophore of known quantum yield and were calculated according to Parker and Rees, where the reference dye was fluorescein in 0.1N sodium hydroxide solution [46]. The emission fluorescence scans were collected from 480 nm to 700 nm with the excitation light set at 460 nm provided by the xenon arc lamp described above. These measurements were made on the AB1 complexes at high protein concentration.
Supplementary file pone.0204194.s001.docx: S1 Fig Absorbance spectra of dye-labeled B7 probes and respective complexes with AV and SAV. […] The spectra are normalized to the calculated molar absorptivies. The distortion of the SAV-BFl absorbance spectrum (B panel) is caused by the presence of Fl^2- and Fl^1-. The labeled probes and protein concentrations were 1 μM and 10 μM, respectively. (DOCX) Click here for additional data file.
Supplementary file pone.0204194.s002.docx: S2 Fig Fluorescence emission spectra of dye-labeled B7 and respective complexes with AV and SAV. […] The probe and protein concentrations were 20 nM and 1040 nM (AB1 filling model), respectively. (DOCX) Click here for additional data file.

[8] = SAV complex, mono-ionic fluorescein species

For `O=C(O)CCCC[C@@H]1SC[C@@H]2NC(=O)N[C@@H]21` [B7, d-biotin], the “Ea^Backward, averaged value” [1] was 29.4 ± 2.6 kcal/mol and 29.4 kcal/mol, the “ΔG° ^ǂ, Backward, averaged value” [1] was 23.6 ± 1.5 kcal/mol and 23.6 kcal/mol and the “ΔS° ^ǂ, Backward, averaged value” [1] was 24.8 ± 4.5 cal/mol°K and 24.8 cal/mol°K. For the same compound, the “ΔG° ^ǂ, Backward, averaged value” ([1]; listed as B) was 23.6 ± 1.0 kcal/mol, the “ΔS° ^ǂ, Backward, averaged value” ([1]; listed as B) was 24.8 ± 2.5 cal/mol°K and the “ΔG°rxn, averaged value” [2] was -18.2 ± 0.2 kcal/mol. The “ΔH°rxn, averaged value” [2] was -24.8 ± 2.0 kcal/mol, the “ΔG°rxn, averaged value” ([2]; listed as B) was -18.2 ± 0.1 kcal/mol and the “ΔG° ^ǂ, Backward” value ([3]; AV-B7) was 24.7 ± 2.0 [18]^e kcal/mol and 24.7 kcal/mol. For the same compound, the “ΔS° ^ǂ, Backward” value ([3]; AV-B7) was 43.0 ± 2.0 [18]^e cal/mol°K and 43 cal/mol°K, the “ΔG° ^ǂ, Backward” value ([3]; AV-B7, listed as B) was 24.7 ± 1.0 6,a kcal/mol and the “ΔS° ^ǂ, Backward” value ([3]; AV-B7, listed as B) was 43.0 ± 2.0 6,a cal/mol°K. The “Ea^Backward” value ([3]; AV-B7) was 37.6 ± 2.0 [18] kcal/mol and 37.6 kcal/mol, the “Ea^Backward” value ([3]; AV-B7, listed as B) was 37.6 ± 1.0 6,a kcal/mol and the koff replacement ([3]; AV-B7, ref 35) was 9e-08 s⁻¹. The kon ([3]; Surface Plasmon Resonance, 20°C, pH 7.4 in HEPES buffer) was 2.0 ± 0.3 × 10^6 M^-1s^-1, the “half-life of the AV-B7 complex” value [3] was 90 days and the kon ([3]; pH 5 and 25°C, 14C-biotin quenching experiment) was 7e+07 M⁻¹ s⁻¹. For the same compound, the “ΔG° ^ǂ, Backward” value ([4]; SAV-B7, calculated at 25°C) was 24.8 ± 0.3 kcal/mol and 24.8 ± 0.3 80,f kcal/mol, the “ΔG° ^ǂ, Backward” value ([4]; SAV-B7, calculated at 25°C, listed as B) was 24.8 ± 0.3 53,b kcal/mol and the “ΔS° ^ǂ, Backward” value ([4]; SAV-B7, calculated from the plotted data) was 29.9 ± 2.0 cal/mol°K and 29.9 ± 2.0 18 e cal/mol°K. The “ΔS° ^ǂ, Backward” value ([4]; SAV-B7, calculated from the plotted data, listed as B) was 29.9 ± 2.0 6,a cal/mol°K, the “ΔS° ^ǂ, Backward” value ([4]; SAV-B7, ref 39, 80, 82) was 18.8 ± 0.3 cal/mol°K and 18.8 ± 0.3 36,80,81 cal/mol°K and the “ΔS° ^ǂ, Backward” value ([4]; SAV-B7, ref 39, 80, 82, listed as B) was 18.8 ± 0.3 20, 53, 55 cal/mol°K. For the same compound, the “Ea^Backward” value ([4]; SAV-B7, ref 39, 80) was 30.4 ± 0.2 kcal/mol and 30.4 ± 0.2 36,80 kcal/mol, the “Ea^Backward” value ([4]; SAV-B7, ref 39, 80, listed as B) was 30.4 ± 0.2 20, 53 kcal/mol and the “ΔG° ^ǂ, Backward” value ([4]; SAV-B7, ref 39, 82) was 24.6 ± 0.3 kcal/mol and 24.6 ± 0.3 36,81 kcal/mol. The “ΔG° ^ǂ, Backward” value ([4]; SAV-B7, ref 39, 82, listed as B) was 24.6 ± 0.3 20, 55 kcal/mol, the “ΔG° ^ǂ, Backward” value ([4]; SAV-B7, ref 47) was 21.4 ± 2.0 kcal/mol and 21.4 ± 2.0 44 kcal/mol and the “ΔG° ^ǂ, Backward” value ([4]; SAV-B7, ref 47, listed as B) was 21.4 ± 1.0 6 kcal/mol. For the same compound, the koff replacement ([4]; SAV-B7, ref 68) was 2.4e-06 s⁻¹, the “Ea^Backward” value ([4]; SAV-B7, ref 81) was 32.0 kcal/mol and 32 kcal/mol and the “ΔS° ^ǂ, Backward” value ([4]; SAV-B7, ref 81) was 25.8 cal/mol°K and 25.8 82 cal/mol°K. The “Ea^Backward” value ([4]; SAV-B7, ref 81, listed as B) was 32.0 56 kcal/mol, the “ΔS° ^ǂ, Backward” value ([4]; SAV-B7, ref 81, listed as B) was 25.8 56 cal/mol°K and the “Ea^Backward” value ([4]; SAV-B7, ref 82) was 25.8 ± 1.2 kcal/mol and 25.8 ± 1.2 81 kcal/mol. For the same compound, the “Ea^Backward” value ([4]; SAV-B7, ref 82, listed as B) was 25.8 ± 1.2 55 kcal/mol, the kon ([4]; SPR, immobilized B7, 4°C) was 5.1e+06 M⁻¹ s⁻¹ and the kon ([4]; stopped-flow, tryptophan fluorescence quenching, 25°C and pH 7) was 7.5 ± 0.6 × 10^7 M^-1s^-1. For the same compound, the “ΔH°rxn” value ([5]; ref 39) was -26.7 kcal/mol and -26.7 36 kcal/mol, the “ΔH°rxn” value ([5]; ref 39, listed as B) was -26.7 20 kcal/mol and the “ΔG°rxn” value ([5]; ref 76) was -20.5 kcal/mol and -20.5 77 kcal/mol. The “ΔH°rxn” value ([5]; ref 76) was -20.3 ± 0.3 kcal/mol and -20.3 ± 0.377 kcal/mol, the “ΔG°rxn” value ([5]; ref 76, listed as B) was -20.5 50 kcal/mol and the “ΔH°rxn” value ([5]; ref 76, listed as B) was -20.3 ± 0.3 50 kcal/mol. For the same compound, the “ΔH°rxn” value ([5]; ref 77) was -22.5 ± 0.1 kcal/mol and -22.5 ± 0.1 78 kcal/mol, the “ΔH°rxn” value ([5]; ref 77, listed as B) was -22.5 ± 0.1 52 kcal/mol and the “ΔG°rxn” value ([5]; ref 78) was -20.8 kcal/mol and -20.8 79 kcal/mol. For the same compound, the “ΔH°rxn” value ([5]; ref 78) was -23.4 ± 0.3 kcal/mol and -23.4 ± 0.3 79 kcal/mol, the “ΔS°rxn” value ([5]; ref 78) was -8.9 [78] cal/mol°K and -8.9 79 cal/mol°K and the “ΔG°rxn” value ([5]; ref 78, listed as B) was -20.8 51 kcal/mol. The “ΔH°rxn” value ([5]; ref 78, listed as B) was -23.4 ± 0.3 51 kcal/mol, the “ΔS°rxn” value ([5]; ref 78, listed as B) was -8.9 51 cal/mol°K and the “ΔH°rxn” value ([6]; ref 19) was -26.7 19 kcal/mol. The “ΔH°rxn” value ([6]; ref 19, listed as B) was -26.7 6 kcal/mol, the “ΔG°rxn” value ([6]; ref 39) was -18.1 kcal/mol and -18.1 36 kcal/mol and the “ΔH°rxn” value ([6]; ref 39) was -24.5 kcal/mol and -24.5 36 kcal/mol. For the same compound, the “ΔS°rxn” value ([6]; ref 39) was -21.0 [39] cal/mol°K and -21.0 36 cal/mol°K, the “ΔG°rxn” value ([6]; ref 39, listed as B) was -18.1 20 kcal/mol and the “ΔH°rxn” value ([6]; ref 39, listed as B) was -24.5 20 kcal/mol. For the same compound, the “ΔS°rxn” value ([6]; ref 39, listed as B) was -21.0 20 cal/mol°K, the “ΔH°rxn” value ([6]; ref 79) was -23.0 kcal/mol and -23.0 72 kcal/mol and the “ΔH°rxn” value ([6]; ref 79, listed as B) was -23.0 50 kcal/mol. For the same compound, the “ΔH°rxn” value ([6]; ref 80) was -24.9 ± 0.4 kcal/mol and -24.9 ± 0.4 80 kcal/mol, the “ΔH°rxn” value ([6]; ref 80, listed as B) was -24.9 ± 0.4 53 kcal/mol and the “ΔG°rxn” value ([6]; ref 83, 84) was -18.3 kcal/mol and -18.3 83,84 kcal/mol. For the same compound, the “ΔG°rxn” value ([6]; ref 83, 84, listed as B) was -18.3 54, 57 kcal/mol.
In the case of `O=C(CCCC[C@@H]1SC[C@@H]2NC(=O)N[C@@H]21)NCCNC(=O)c1ccc(-c2c3ccc(=O)cc-3oc3cc(O)ccc23)c(C(=O)O)c1` [BFl, Biotin-4-fluorescein], the “Maximum Absorbance” value ([7]; SAV complex, di-ionic fluorescein species) is reported as 494 nm, the “Maximum Absorbance” value [7, 8] is reported as 472 nm and the “Maximum Emission” value [7, 8] is reported as 515 nm. The “Emission (nm)” value ([7]; complex with SAV) was 524 nm.
